Data taken from PubChem BioAssay (NCI).
Where “and” joins values, the source holds several entries; their conditions need not be identical. Identical values can stand only once.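 1) Cells in 96-well plates. 2) Compound, 48 h, 5 concentrations. 3) Linear interpolation between surrounding doses. 4) Unreached endpoint = highest concentration. Here, GI50 denotes the concentration required for 50% inhibition of growth. At the TGI there is no net growth.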

Experiments:
Assay in all cases: NCI tumour cell line growth inhibition, 48 h
HCT-116 colon = system: HCT-116 colon
ACHN renal = system: ACHN renal
SW-620 colon = system: SW-620 colon
UACC-257 melanoma = system: UACC-257 melanoma
RPMI-8226 leukemia = system: RPMI-8226 leukemia
SN12C renal = system: SN12C renal
SF-539 CNS = system: SF-539 CNS
SF-268 CNS = system: SF-268 CNS
CAKI-1 renal = system: CAKI-1 renal
K-562 leukemia = system: K-562 leukemia

SMILES | GI50 (HCT-116 colon) | TGI (HCT-116 colon) | GI50 (ACHN renal) | TGI (ACHN renal) | GI50 (SW-620 colon) | TGI (SW-620 colon) | GI50 (UACC-257 melanoma) | TGI (UACC-257 melanoma) | GI50 (RPMI-8226 leukemia) | TGI (RPMI-8226 leukemia) | GI50 (SN12C renal) | TGI (SN12C renal) | GI50 (SF-539 CNS) | TGI (SF-539 CNS) | GI50 (SF-268 CNS) | TGI (SF-268 CNS) | GI50 (CAKI-1 renal) | TGI (CAKI-1 renal) | GI50 (K-562 leukemia) | TGI (K-562 leukemia)
C[C@]12CC[C@@H]3c4ccc(O)c([N+](=O)[O-])c4CC[C@H]3[C@@H]1CC[C@@H]2NS(=O)(=O)c1cccc(Br)c1 | 1.92 µM | 4.17 µM | 2.59 µM | 8.17 µM | 2.7 µM | 9.42 µM | 2.1 µM | 5.04 µM | 2.44 µM | 6.27 µM | 1.72 µM | 3.54 µM | 1.55 µM | 3.24 µM | 2.99 µM | 10.3 µM | 2.36 µM | 5.43 µM | 3.1 µM | 10.7 µM
Cc1cccc(C)c1NC(=O)C(=O)CC(=O)c1cccc([N+](=O)[O-])c1 |  | > 100 µM |  | > 100 µM |  | > 100 µM |  | > 100 µM |  | > 100 µM |  | > 100 µM |  | > 100 µM |  | > 100 µM |  | > 100 µM |  | > 100 µM
COc1ccc2c3c(Nc4ccc(/C(C)=N/O)cc4)[nH]c4ccccc4c-3c(N=O)c2c1 | 1.47 µM | 2.89 µM | 0.568 µM | 2.54 µM | 1.36 µM | 2.85 µM | 3.08 µM | 8.56 µM | 2.52 µM | 5.14 µM | 7.06 µM | 23 µM | 17.3 µM | 34.6 µM | 1.07 µM | 34.9 µM | 2.65 µM | 6.01 µM | 0.665 µM | 2.8 µM
COc1ccc2c(Oc3ccc(NC(=O)c4c(C)n(CC(C)(C)O)n(-c5ccccc5)c4=O)nc3)ccnc2c1 | 8.55 µM | > 64.3 µM | 5.02 µM | > 100 µM | 34.2 µM | > 100 µM | 16.6 µM | > 100 µM | 10.7 µM | > 79.3 µM | 4.94 µM | > 100 µM | 5.85 µM | 50.9 µM | 16.8 µM | > 100 µM | 3.33 µM | > 27.7 µM | 2.77 µM | 20 µM
COC(C(=O)[C@@H](O)[C@@H](C)O)[C@@H]1Cc2cc3cc(O[C@H]4C[C@@H](O[C@H]5C[C@@H](O)[C@H](O)C(C)O5)[C@H](O)C(C)O4)c(C)c(O)c3c(O)c2C(=O)[C@H]1O[C@H]1C[C@@H](O[C@H]2C[C@@H](O[C@H]3C[C@@H](O)[C@H](OC)C(C)O3)[C@@H](O)C(C)O2)[C@H](O)C(C)O1 (some centres undefined) | 0.0112 µM | > 33.3 µM | 0.0831 µM | > 33.3 µM | 0.0197 µM | > 33.3 µM | 0.013 µM | 0.101 µM | 0.0141 µM | 7.13 µM |  | > 33.3 µM | 0.0142 µM | 0.101 µM | 0.0307 µM | > 33.3 µM | 0.601 µM | > 33.3 µM | 0.0224 µM | > 33.3 µM
[F][Sn]([F])([c]1ccccc1)[c]1ccccc1 | 1.5 µM | 3.26 µM | 1.6 µM | 2.97 µM | 1.36 µM | 3.02 µM | 1.56 µM | 3.2 µM | 1.11 µM | 3.79 µM | 1.68 µM | 3.18 µM | 2.13 µM | 4.09 µM | 1.84 µM | 3.78 µM | 1.32 µM | 3.22 µM | 0.702 µM | 4.96 µM
O=C(OCc1ccc2c(Cl)cc(Cl)c(O)c2n1)N1CCN(C(=O)c2cc3cc(F)ccc3[nH]2)CC1 | 0.392 µM | > 100 µM | 0.611 µM | > 100 µM | 0.83 µM | > 100 µM | > 100 µM | > 100 µM | 0.48 µM | > 100 µM | 1.15 µM | > 100 µM | 0.403 µM | 3.02 µM | 1.56 µM | > 100 µM | 0.905 µM | > 100 µM | 0.825 µM | > 100 µM
C/C(=N\NC(=S)N1CC2CCC(CC2)C1)c1ccccn1 | < 0.01 µM | 1.15 µM | 0.0347 µM | 1.52 µM | 0.033 µM | 1.57 µM | 0.0214 µM | 0.357 µM | 0.0368 µM | 0.78 µM | 0.228 µM | 2.03 µM | 0.257 µM | 2.34 µM | 0.185 µM | 2.4 µM | 0.27 µM | 3.89 µM | < 0.0108 µM | 2.21 µM
C/C(CCn1[nH]c(=O)ccc1=O)=N\OCCCc1ccccc1 |  | > 100 µM |  | > 100 µM |  | > 100 µM |  | > 100 µM |  | > 100 µM |  | > 100 µM |  | > 100 µM |  | > 100 µM |  | > 100 µM |  | > 100 µM
CCCCCCCCCCCCOC1C(C(CC(=O)NCCN2CCCC2)NS(=O)(=O)c2cc(Cl)cc(Cl)c2)OC2OC(C)(C)OC21 (centres undefined) | 1.85 µM | 4.78 µM | 1.9 µM | 3.37 µM | 1.98 µM | 3.63 µM | 2.04 µM | 4.84 µM | 1.23 µM | 3.21 µM | 1.76 µM | 3.23 µM | 2.01 µM | 3.48 µM | 1.95 µM and 1.97 µM | 3.96 µM and 3.84 µM | 1.79 µM | 3.4 µM | 2.34 µM | 4.85 µM
